Data taken from patent publication US11391726B2, “MoT cells as a therapeutic screening tool for regulatory t-cell activity” (ARIZONA BOARD OF REGENTS ON BEHALF OF ARIZONA STATE …, priority 2018, dated 2022).
Entries after “also recorded” stand apart in the source; their conditions may differ.

What was measured:
[1] = tested on: MoT cells; experiment: CFSE suppression assay: Mabs pre-incubated with MoT cells, then co-cultured with CD3/28-stimulated CD4+ PBMC; assay type: cell-based, human; conditions: Mab pre-incubated with MoT cells 30 minutes, CD4+ PBMC:MoT ratio 1:1/2, CFSE flow cytometry (FIGS. 5D, 5F, 5H)
Experimental: (§1) Suppression assays. After IRB approval at Arizona State University (protocol #0601000548), peripheral blood was collected from healthy donors. After Ficoll-Paque Plus gradient separation of the buffy coat, CD4+ cells were purified using EasySep Human CD4^+ T Cell Isolation Kit (Catalog #17952 from Stemcell Technologies). Cells were allowed to rest overnight in cIMDM at 37° C. prior to labeling with CFSE (Carboxyfluorescein succinimidyl ester, from Cayman Chemica cat #10009853) dye to track cell divisions. The following day, CD4^+ T cells were counted, stained with CFSE, washed in PBS and then plated in IMDM with 10% FBS at 3×10^5 cells per well in a 48-well plate coated with OKT3 antibody at 5.0 ug/mL for 2 hours at 37° C. then washed twice in PBS before adding soluble co-stimulatory anti-CD28 (eBioscience clone CD28.6) at 5.0 ug/mL final concentration.
In some studies MoT and Jurkat cells were labeled with Cell Trace FarRed dye (Thermofisher) to gate MoT and Jurkat cells away from CD4^+ PBMC in flow cytometry analysis. Two-fold serial dilutions of MoT and Jurkat cells were added to CD4^+ PBMC, starting at 1.5×10^5 MoT and Jurkat cells (1:1/2 ratio CD4^+ T cells:tumor cells). Final volume per well was 1 mL. Cells were incubated for 5 days. […]

[2] = tested on: CD4+ PBMC; experiment: CFSE proliferation assay: Mabs co-incubated with CD3/28-stimulated CD4+ PBMC without MoT cells; assay type: cell-based, human; conditions: no MoT cells (FIGS. 5C, 5E, 5G)
Experimental: as §1
(FIG. 5A) Unstimulated PBMC. (FIG. 5B) CD3/28-stimulated CD4^+ PBMC cell division without MoT cells. (FIG. 5C) Anti-GITR, (FIG. 5E) Anti-CCR4 mogamulizumab, and (FIG. 5G) anti-PDL-1 (atezolizumab) co-incubated with PBMCs. (FIG. 5D) Anti-GITR, (FIG. 5F) anti-CCR4 (mogamulizumab), and (FIG. 5H) anti-PDL-1 (atezolizumab) co-incubated with PBMCs and MoT cells (1:½ ratio).

## atezolizumab
[1]
  reversal of MoT cell-mediated suppression of CD4+ PBMC proliferation: None of the checkpoint inhibitor Mabs including anti-GITR reversed MoT cell-mediated suppression; also recorded: did not reverse suppression
[1]; listed as anti-PD-L1
  reversal of MoT cell-mediated suppression of CD4+ PBMC proliferation: did not attenuate MoT Treg suppressive activity
[2]
  suppression or inhibition of CD4+ PBMC proliferation by the Mab alone: do not suppress or inhibit
